From ChEMBL document CHEMBL1201862, “PubChem BioAssay data set” (2004)
Active and inactive are the calls of the source.

Tests used:
[1] = biological target: NACHT, LRR and PYD domains-containing protein 3 (Homo sapiens, UniProt Q96P20); assay: NALP3 inhibitors in yeast, dose response, luminescent (AID 488799); type: functional
[2] = biological target: DNA dC->dU-editing enzyme APOBEC-3A (Homo sapiens, UniProt P31941); assay: Dose Response confirmation of small molecule APOBEC3A DNA Deaminase Inhibitors via a fluorescence-based single-stranded DNA deaminase assay. [Related pubchem assays (depositor defined):AID493011, AID493024]; type: functional
[3] = biological target: DNA dC->dU-editing enzyme APOBEC-3G (Homo sapiens, UniProt Q9HC16); type: functional;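 also: Dose-response counterscreen measuring inhibition of APOBEC3G DNA deaminase activity, run while confirming APOBEC3A inhibitors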
[4] = biological target: T1, Luciferin 4-monooxygenase (Photinus pyralis, UniProt P08659); assay: Counter Screen for Luciferase-based Assay Positives. [Related pubchem assays: 620, 618, 411 ]
[5] = system: HT-1080; assay: HT1080 cell viability loss – fluorescence readout (AID 620); type: functional, cell-based; conditions: Homo sapiens
[6] = Trypanosoma cruzi growth suppression in host cells – NIH3T3 host cells, beta-gal luminescence, confirmation (AID 2044); type: functional, cell-based;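 also: intracellular parasites grown in NIH/3T3 mouse fibroblasts as host cells; luminescent beta-galactosidase reporter signal from transgenic T. cruzi replicating inside host cells; inhibitors lower the luminescence signal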
[7] = NIH3T3 cell viability loss – ATP luminescence, mouse fibroblasts, counter-screen, dose response (AID 2010); type: functional, cell-based;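 also: cells exposed to compound for about 90 hours before reading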
[8] = biological target: Ion channel NompC (Danio rerio, UniProt Q7T1G6); assay: Fluorescence counterscreen assay for TRPML3 agonists: dose response cell-based high-throughput screening assay to identify agonists of the transient receptor potential channel N1 (TRPN1). [Related pubchem assays: 1526, 1424, 1448 ]; type: functional
[9] = biological target: T2, Mucolipin-3 (Homo sapiens, UniProt Q8TDD5); assay: Dose response cell-based high-throughput screening assay for agonists of the transient receptor potential channel ML3 (TRPML3). [Related pubchem assays: 1526, 1424, 1448 ]; type: functional
T2 sequence (Q8TDD5 whole entry): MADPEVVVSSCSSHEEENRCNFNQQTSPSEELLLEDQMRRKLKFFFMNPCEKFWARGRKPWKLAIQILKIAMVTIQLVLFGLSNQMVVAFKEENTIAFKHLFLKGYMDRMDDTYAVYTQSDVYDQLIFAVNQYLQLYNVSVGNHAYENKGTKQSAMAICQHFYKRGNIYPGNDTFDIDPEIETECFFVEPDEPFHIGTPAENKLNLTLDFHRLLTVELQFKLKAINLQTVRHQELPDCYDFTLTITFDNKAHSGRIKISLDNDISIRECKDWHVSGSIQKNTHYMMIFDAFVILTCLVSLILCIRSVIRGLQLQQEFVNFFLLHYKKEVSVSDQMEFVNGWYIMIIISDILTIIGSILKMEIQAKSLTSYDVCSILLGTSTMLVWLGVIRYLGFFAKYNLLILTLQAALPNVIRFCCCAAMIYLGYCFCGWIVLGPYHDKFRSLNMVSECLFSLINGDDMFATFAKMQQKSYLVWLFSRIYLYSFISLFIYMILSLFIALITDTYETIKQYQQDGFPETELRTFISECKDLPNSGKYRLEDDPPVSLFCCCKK

[10] = biological target: Alkaline phosphatase, placental type (Homo sapiens, UniProt P05187); assay: human placental alkaline phosphatase inhibition – biochemical, luminescence, confirmation (AID 1512); type: functional
[11] = A Cell Based Secondary Assay To Explore Cytotoxicity of Compounds that Sensitize Mycobacterium Tuberculosis to Beta-Lactam Antibiotics.; type: functional
[12] = biological target: Eukaryotic translation initiation factor 4H (Homo sapiens, UniProt Q15056); assay: inhibitors of translation initiation factor eIF4H – SAR follow-up (AID 435011); type: functional
[13] = biological target: Polyadenylate-binding protein 1 (Homo sapiens, UniProt P11940); assay: PABP inhibition in translation initiation, SAR follow-up (AID 435018); type: functional
[14] = Vero E6 cell cytotoxicity, dose response, cytotoxicity control for non-replicating M. tuberculosis project, secondary assay (AID 492998); type: functional, VeroE6; conditions: Vero C1008
[15] = system: Vero; assay: cells; type: functional; conditions: Chlorocebus sabaeus
[16] = biological target: T3, Short transient receptor potential channel 4 (Mus musculus, UniProt Q9QUQ5); assay: calcium entry via TRPC4 opening agents – cell-based, HEK293 TRPC4/mu-opioid, Fluo-4 calcium, dose response (AID 434937); type: functional
T3 sequence (Q9QUQ5 whole entry): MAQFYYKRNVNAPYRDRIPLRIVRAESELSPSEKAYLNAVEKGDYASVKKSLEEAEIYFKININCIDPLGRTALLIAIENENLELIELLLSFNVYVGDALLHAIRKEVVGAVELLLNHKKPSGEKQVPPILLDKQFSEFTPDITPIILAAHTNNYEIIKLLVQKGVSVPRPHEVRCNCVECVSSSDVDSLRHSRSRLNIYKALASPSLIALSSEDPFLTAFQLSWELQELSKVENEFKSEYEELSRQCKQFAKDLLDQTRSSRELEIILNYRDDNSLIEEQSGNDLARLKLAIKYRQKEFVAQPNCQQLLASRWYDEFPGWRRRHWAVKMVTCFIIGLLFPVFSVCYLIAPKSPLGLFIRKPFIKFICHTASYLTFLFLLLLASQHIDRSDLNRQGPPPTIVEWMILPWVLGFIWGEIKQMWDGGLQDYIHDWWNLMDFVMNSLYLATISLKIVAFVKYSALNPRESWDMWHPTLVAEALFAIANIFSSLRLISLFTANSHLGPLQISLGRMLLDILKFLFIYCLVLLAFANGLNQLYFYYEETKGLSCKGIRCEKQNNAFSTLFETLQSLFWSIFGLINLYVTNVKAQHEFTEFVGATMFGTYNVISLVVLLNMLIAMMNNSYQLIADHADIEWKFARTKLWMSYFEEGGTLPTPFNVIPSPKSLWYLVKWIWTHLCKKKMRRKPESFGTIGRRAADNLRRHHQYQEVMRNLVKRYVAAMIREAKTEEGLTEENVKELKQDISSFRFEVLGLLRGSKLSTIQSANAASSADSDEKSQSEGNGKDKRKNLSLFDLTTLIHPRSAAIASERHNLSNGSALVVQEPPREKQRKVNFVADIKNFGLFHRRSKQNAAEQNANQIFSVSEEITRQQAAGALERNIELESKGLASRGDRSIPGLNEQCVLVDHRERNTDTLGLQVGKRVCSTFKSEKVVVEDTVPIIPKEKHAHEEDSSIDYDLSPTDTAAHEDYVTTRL

[17] = HepG2 cell cytotoxicity, dose response, cytotoxicity control for non-replicating M. tuberculosis project (AID 489018); type: functional; conditions: Mycobacterium tuberculosis
[18] = cells; type: functional
[19] = THP-1 cell cytotoxicity, dose response, cytotoxicity control for non-replicating M. tuberculosis project (AID 489025); type: functional
[20] = biological target: T3, Short transient receptor potential channel 4; assay: potentiation of DAMGO-evoked TRPC4 calcium signal – cell-based, HEK293 TRPC4/mu-opioid, Fluo-4 calcium, EC20 DAMGO, dose response (AID 434941); type: functional
[21] = biological target: T1, Luciferin 4-monooxygenase; assay: inhibition of purified Photinus pyralis luciferase – biochemical, luminescence, dose response (AID 1891)
[22] = Luminescence Cell-Based Dose Confirmation HTS to Identify Inhibitors of Platelet Dense Granule Release. [Related pubchem assays: 1663 (Primary HTS), 1678 (Summary of Project)]; type: functional
[23] = microbe, parasite or virus in culture; type: functional; conditions: Mycobacterium tuberculosis
[24] = biological target: Nonstructural protein 1 (Influenza A virus, UniProt Q194T2); type: functional, Influenza A virus (A/California/07/2009(H1N1))
[25] = system: Streptococcus; assay: GAS UMAA2166 growth inhibition – luminescence, BacTiterGlo, counter-screen for streptokinase expression inhibitor project, dose response (AID 1915); type: functional, organism-based;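 also: potency for reduction of bacterial viability or growth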
[26] = system: Streptococcus sp. 'group A'; assay: Streptococcus pyogenes SK(-)GAS viability under kanamycin – luminescence, BacTiterGlo, confirmation, counter-screen for streptokinase expression inhibitor project, dose response (AID 1900); type: functional, organism-based
[27] = biological target: T4, Streptokinase A (Streptococcus pyogenes serotype M1, UniProt P10520); assay: viability-normalized secreted streptokinase activity reduction – plasminogen activation absorbance, OD405, dose response (AID 1914); type: functional, Streptococcus pyogenes M1 GAS;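 also: secreted streptokinase activity via plasminogen activation per viability signal from cell pellet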
T4 sequence (P10520 whole entry): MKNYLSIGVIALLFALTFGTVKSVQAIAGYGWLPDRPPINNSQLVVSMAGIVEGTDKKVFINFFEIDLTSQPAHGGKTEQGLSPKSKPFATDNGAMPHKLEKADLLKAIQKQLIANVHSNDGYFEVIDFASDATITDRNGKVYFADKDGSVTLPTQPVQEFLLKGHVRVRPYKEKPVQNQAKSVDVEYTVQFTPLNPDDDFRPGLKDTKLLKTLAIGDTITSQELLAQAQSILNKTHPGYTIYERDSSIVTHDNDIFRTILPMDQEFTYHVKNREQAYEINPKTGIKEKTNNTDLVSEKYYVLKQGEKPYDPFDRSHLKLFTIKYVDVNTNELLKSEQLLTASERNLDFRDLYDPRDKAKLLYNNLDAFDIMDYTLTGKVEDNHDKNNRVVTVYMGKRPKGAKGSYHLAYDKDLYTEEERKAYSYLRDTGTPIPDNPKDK

[28] = system: INS1; assay: INS-1E survival protection against cytokine death – cell-based, luminescence, retest, dose response (AID 449756); type: functional; conditions: Rattus norvegicus;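 also: cell death triggered by IL-1 beta plus TNF-alpha plus IFN-gamma mixture; protective hits raise ATP signal compared with cytokine alone wells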
[29] = biological target: Cytochrome P450 2C9 (Homo sapiens, UniProt P11712)
[30] = biological target: Cytochrome P450 2C19 (Homo sapiens, UniProt P33261); assay: Cytochrome panel assay with activity outcomes. Panel member name: p450-cyp2c19 Compounds with AC50 equal or less than 10 uM are considered active; type: functional; conditions: read-out: AC50
[31] = biological target: T5, Cytochrome P450 1A2 (Homo sapiens, UniProt P05177);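 also: PubChem cytochrome P450 panel assay, CYP1A2 panel member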
T5 sequence (P05177 whole entry): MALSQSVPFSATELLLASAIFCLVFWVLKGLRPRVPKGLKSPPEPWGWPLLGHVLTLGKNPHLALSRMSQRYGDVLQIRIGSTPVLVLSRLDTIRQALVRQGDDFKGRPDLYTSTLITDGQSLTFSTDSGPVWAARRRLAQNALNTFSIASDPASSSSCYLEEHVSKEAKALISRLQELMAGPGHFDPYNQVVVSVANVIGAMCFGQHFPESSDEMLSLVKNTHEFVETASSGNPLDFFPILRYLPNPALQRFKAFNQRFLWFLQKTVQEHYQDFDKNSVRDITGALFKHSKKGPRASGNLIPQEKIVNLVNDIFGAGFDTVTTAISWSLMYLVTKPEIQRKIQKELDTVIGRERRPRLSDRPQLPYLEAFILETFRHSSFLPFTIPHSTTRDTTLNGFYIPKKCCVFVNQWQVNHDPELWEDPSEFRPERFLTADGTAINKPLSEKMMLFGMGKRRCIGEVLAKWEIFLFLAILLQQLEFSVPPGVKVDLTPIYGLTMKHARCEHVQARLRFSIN

[32] = biological target: Neurotensin receptor type 1 (Homo sapiens, UniProt P30989); type: functional;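 also: Image-based confirmatory dose-response assay measuring agonist activity at NTR1; NTR1-expressing U2OS osteosarcoma cells imaged for beta-arrestin GFP spot formation; agonist potency where compounds increase beta-arrestin recruitment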
Sequence of Neurotensin receptor type 1 (P30989 whole entry): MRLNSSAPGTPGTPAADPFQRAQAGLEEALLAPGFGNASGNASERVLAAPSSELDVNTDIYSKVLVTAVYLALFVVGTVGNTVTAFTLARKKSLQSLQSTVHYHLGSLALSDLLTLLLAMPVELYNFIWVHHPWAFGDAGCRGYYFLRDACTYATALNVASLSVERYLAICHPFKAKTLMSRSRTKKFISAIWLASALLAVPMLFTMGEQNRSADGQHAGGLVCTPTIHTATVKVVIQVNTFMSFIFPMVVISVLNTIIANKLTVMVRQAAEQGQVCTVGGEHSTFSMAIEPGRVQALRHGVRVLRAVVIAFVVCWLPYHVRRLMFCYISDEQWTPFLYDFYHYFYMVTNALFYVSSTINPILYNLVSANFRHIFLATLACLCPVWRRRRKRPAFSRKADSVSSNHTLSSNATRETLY

T1 sequence (P08659 whole entry): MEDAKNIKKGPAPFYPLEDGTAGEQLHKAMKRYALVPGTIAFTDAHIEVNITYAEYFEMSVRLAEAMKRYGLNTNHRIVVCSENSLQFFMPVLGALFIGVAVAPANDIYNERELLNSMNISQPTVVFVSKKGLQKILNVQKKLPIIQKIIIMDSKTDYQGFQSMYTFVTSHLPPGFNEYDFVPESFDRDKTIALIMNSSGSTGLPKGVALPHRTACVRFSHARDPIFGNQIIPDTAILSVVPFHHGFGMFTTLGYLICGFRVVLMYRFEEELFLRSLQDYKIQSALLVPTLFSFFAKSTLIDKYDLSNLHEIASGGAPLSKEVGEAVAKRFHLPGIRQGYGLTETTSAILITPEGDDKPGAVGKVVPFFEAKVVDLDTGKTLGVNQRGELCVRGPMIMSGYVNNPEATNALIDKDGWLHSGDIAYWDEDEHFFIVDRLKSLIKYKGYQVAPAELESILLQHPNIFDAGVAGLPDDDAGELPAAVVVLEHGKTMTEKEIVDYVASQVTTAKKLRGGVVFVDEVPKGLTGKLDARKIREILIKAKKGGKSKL
Sequence of Polyadenylate-binding protein 1 (P11940 whole entry): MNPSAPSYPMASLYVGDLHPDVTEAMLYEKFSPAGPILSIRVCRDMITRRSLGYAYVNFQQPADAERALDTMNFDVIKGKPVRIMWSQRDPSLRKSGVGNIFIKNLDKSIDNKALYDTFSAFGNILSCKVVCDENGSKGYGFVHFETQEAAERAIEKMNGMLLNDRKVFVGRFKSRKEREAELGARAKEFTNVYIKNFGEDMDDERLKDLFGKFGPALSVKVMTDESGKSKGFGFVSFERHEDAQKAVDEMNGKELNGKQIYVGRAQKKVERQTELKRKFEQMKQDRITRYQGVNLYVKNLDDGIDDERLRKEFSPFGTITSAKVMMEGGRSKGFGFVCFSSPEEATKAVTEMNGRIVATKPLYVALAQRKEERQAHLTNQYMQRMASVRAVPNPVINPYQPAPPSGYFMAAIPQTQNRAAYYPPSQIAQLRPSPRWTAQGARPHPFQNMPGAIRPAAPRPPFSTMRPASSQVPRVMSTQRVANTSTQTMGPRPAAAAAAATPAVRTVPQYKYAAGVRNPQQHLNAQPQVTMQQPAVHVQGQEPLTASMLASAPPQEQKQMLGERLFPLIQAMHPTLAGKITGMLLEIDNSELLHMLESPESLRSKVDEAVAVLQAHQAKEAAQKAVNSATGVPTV
Sequence of DNA dC->dU-editing enzyme APOBEC-3G (Q9HC16 whole entry): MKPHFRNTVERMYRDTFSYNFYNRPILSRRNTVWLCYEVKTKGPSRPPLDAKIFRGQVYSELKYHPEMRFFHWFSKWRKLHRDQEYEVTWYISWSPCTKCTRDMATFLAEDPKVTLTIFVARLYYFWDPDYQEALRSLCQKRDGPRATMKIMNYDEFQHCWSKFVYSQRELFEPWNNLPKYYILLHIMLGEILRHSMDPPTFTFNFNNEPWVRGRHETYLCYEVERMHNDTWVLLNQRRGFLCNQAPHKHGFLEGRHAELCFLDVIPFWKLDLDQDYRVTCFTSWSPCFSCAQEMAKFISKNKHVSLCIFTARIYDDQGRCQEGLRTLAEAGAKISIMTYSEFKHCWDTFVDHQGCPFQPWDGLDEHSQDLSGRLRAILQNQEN
Sequence of DNA dC->dU-editing enzyme APOBEC-3A (P31941 whole entry): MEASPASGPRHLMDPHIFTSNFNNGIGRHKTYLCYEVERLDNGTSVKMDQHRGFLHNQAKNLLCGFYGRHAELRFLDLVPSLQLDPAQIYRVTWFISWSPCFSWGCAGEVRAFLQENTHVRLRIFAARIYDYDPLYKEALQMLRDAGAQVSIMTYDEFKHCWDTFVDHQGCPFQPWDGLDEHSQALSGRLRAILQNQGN
Sequence of NACHT, LRR and PYD domains-containing protein 3 (Q96P20 whole entry, the tested form may be a part): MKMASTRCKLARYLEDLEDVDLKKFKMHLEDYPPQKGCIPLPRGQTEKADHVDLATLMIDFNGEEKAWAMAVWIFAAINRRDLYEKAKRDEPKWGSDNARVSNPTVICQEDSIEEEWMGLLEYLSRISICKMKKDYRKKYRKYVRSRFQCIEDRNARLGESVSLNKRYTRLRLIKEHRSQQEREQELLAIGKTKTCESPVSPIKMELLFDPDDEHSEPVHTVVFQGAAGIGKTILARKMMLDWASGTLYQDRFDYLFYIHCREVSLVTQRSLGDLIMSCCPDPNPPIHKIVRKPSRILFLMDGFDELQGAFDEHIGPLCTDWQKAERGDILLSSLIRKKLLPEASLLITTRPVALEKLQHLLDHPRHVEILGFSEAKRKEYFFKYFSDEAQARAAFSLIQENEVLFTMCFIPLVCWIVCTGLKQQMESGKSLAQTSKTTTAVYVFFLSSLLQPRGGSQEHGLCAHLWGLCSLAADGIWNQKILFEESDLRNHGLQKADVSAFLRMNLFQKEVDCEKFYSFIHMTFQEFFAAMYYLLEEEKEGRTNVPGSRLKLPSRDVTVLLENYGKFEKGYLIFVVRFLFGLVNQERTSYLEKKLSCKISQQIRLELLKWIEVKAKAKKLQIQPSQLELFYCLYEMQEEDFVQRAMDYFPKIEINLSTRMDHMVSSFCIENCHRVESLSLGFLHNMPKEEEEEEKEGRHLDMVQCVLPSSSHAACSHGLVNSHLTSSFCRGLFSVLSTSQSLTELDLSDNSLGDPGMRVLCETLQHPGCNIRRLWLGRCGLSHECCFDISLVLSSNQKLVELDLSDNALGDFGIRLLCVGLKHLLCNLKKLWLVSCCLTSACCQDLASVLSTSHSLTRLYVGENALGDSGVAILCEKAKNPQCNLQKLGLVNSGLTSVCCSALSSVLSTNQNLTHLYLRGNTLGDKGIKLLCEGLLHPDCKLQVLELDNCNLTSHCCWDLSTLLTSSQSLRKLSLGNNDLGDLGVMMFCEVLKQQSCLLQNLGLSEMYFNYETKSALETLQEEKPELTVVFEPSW
Sequence of Nonstructural protein 1 (Q194T2 whole entry): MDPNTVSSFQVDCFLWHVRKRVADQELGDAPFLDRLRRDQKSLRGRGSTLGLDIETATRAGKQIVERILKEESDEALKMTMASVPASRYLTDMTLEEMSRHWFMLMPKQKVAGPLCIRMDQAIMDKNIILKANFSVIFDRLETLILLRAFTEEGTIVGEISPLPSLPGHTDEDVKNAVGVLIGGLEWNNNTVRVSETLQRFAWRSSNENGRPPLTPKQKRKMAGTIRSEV
Sequence of Cytochrome P450 2C19 (P33261 whole entry): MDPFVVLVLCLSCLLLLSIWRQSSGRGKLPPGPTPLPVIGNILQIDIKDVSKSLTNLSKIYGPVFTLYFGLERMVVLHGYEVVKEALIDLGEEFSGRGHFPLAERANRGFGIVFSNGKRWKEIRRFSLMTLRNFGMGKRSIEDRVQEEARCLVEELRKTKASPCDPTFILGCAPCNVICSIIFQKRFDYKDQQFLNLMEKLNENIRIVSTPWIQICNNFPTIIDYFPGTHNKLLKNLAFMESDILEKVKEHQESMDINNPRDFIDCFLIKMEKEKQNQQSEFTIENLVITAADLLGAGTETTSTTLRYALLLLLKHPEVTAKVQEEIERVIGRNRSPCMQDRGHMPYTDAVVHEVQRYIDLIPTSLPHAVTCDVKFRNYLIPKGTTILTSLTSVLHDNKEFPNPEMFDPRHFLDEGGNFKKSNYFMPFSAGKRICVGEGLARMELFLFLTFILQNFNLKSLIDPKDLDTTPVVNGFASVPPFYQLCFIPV
Sequence of Cytochrome P450 2C9 (P11712 whole entry): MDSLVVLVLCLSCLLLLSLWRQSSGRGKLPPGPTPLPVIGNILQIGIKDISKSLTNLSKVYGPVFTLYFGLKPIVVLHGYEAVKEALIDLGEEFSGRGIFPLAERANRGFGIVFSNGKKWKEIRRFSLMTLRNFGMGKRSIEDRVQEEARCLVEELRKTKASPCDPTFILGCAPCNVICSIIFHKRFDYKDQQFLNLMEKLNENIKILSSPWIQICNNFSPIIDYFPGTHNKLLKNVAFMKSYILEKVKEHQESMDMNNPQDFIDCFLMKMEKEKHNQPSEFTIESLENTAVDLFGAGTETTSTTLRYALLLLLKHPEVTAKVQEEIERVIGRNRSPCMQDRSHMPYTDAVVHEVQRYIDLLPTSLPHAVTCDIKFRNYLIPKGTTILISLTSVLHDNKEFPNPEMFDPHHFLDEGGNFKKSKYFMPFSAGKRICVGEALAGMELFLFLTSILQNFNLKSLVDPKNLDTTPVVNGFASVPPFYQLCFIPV

CCC1Nc2ncnc(N3CCN(c4ccccn4)CC3)c2N(Cc2ccc(Cl)cc2)C1=O (stereo not given)
IC50 [1]: 3.16 µM (active)

C=CCNC1=N[C@@H](c2ccccc2)C(C(=O)OC)=C(C)N1CCOC
IC50 [2]: 4.03 µM (active)
IC50 [3]: 6.15 µM (active)

Cc1ccc(OCc2nc(-c3ccccn3)no2)c(Br)c1
EC50 [4]: < 0.2 µM (active)
EC50 [5]: > 50 µM (not active)

CCOc1ccc(S(=O)(=O)NC(C)(C)C)cc1-c1nc(O)c2c(n1)c(C(C)(C)C)nn2C
EC50 [6]: 1.26 µM (active)
EC50 [7]: 8.45 µM (active)
EC50 [8]: > 29.9 µM (not active)
EC50 [9]: 0.781 µM (active)

CCN(CC(=O)Nc1cccc(F)c1)Cc1nc(O)c2ccccc2n1
IC50 [10]: > 100 µM (inactive)

OCCCn1c(C2CCCN2c2nc(-c3ccc(Cl)cc3)cs2)nc2cc(Cl)c(Cl)cc21 (stereo not given)
CC50 [11]: > 40 µM (active)

O=C(Nc1ccc(Br)cc1)C1CCCN1C(=O)Oc1ccccc1 (stereo not given)
IC50 [12]: > 100 µM (inactive)
IC50 [13]: > 100 µM (inactive)

Cc1nc(N/C(N)=N/C(=O)NC2CCCCC2)nc2ccccc12
CC50 [14]: 13.3 µM (active)
CC50 [15]: 19.2 µM (active)
EC50 [16]: 0.0667 µM (active)
CC50 [17]: 17.7 µM (active)
IC50 [18]: 3.25 µM (active)
CC50 [19]: 16.9 µM (active)

C1CCN(c2nc(N3CCCC3)nc(N3CCNCC3)n2)C1
EC50 [20]: 2.66 µM (active)
EC50 [21]: > 112 µM (not active)
EC50 [22]: > 112 µM (not active)

C=CCc1c(C)nc(C)nc1N/N=C/c1ccccc1O
CC50 [23]: > 40 µM (active)
IC50 [1]: 45.5 µM (active)
IC50 [24]: 18.4 µM (active)

CNc1nc(N2CCc3ccccc32)ncc1F
EC50 [20]: 0.75 µM (active)

CN(C)CCNc1ccc(Cl)cc1[N+](=O)[O-]
EC50 [20]: 0.01 µM (active)

Cc1ccc(C)c(NC(=O)C2CCN(C(=O)c3cccs3)CC2)c1
IC50 [12]: > 100 µM (inactive)
IC50 [13]: > 100 µM (inactive)

COc1ccc(C(=O)/C=C/Nc2cccc(O)c2)cc1
EC50 [4]: 0.25 µM (active)
EC50 [5]: > 50 µM (not active)
EC50 [21]: 0.793 µM (active)
EC50 [22]: 5.26 µM (active)

COc1cc([N+](=O)[O-])ccc1NC(=O)COC(=O)c1ccc(N2CCCC2=O)cc1
IC50 [12]: > 100 µM (inactive)
IC50 [13]: > 100 µM (inactive)

CN(C)CC1CCCCC1OC(=O)Cc1ccc(Cl)c([N+](=O)[O-])c1 (stereo not given)
IC50 [2]: 2.81 µM (active)
IC50 [3]: 4.69 µM (active)

Cc1ccc(N=C(S)Nc2ncccc2C)c(C)c1
CC50 [11]: > 40 µM (active)

COc1ccccc1/C=N\Nc1cc(C)nc(-n2nc(C)cc2C)n1
CC50 [14]: 7.06 µM (active)
EC50 [25]: 16.1 µM (active)
EC50 [26]: 7.45 µM (active)
EC50 [27]: > 150 µM (not active)
CC50 [17]: 18.3 µM (active)
IC50 [18]: < 0.1 µM (active)
AC50 [28]: 2.92 µM (active)
CC50 [19]: 5.71 µM (active)

Cc1cccc(N2C(=O)NC(=O)/C(=C\c3cnn(-c4ccccc4)c3)C2=O)c1
AC50 [29]: 39.8 µM (inconclusive)
AC50 [30]: 39.8 µM (inconclusive)
AC50 [31]: 25.1 µM (inconclusive)
EC50 [32]: 13 µM (active)
